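Where inhibition never reached the appropriate level, the endpoint shown equals the highest concentration tested. Otherwise, values were interpolated linearly from a five-concentration, 48-hour dose response in 96-well plates. TGI is the concentration that stops growth completely.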 Where a SMILES comes first, the peptide text is derived from it. The star is where a group is joined. Cbz = O=C(OCc1ccccc1)*

Test systems include CCRF-CEM leukemia; DU-145 prostate; HCC-2998 colon; MALME-3M melanoma; MDA-N; NCI-H23 lung; OVCAR-5 ovarian; OVCAR-8 ovarian; SN12C renal; UACC-62 melanoma.
Test in all cases: NCI-60 cell line screen, 48 h

In the case of `O=C(O)CCC(NC(=O)OCc1ccccc1)C(=O)NC(Cc1cnc[nH]1)C(=O)O` (stereo not drawn) (Cbz-Glu-His-OH; configuration not given here), the TGI with CCRF-CEM leukemia, in the test on DU-145 prostate, in the test on HCC-2998 colon, with MALME-3M melanoma, in the test with MDA-N and in the test on NCI-H23 lung was > 100 µM each time. Besides, the TGI with OVCAR-5 ovarian, in the test on OVCAR-8 ovarian, in the test on SN12C renal and in the test with UACC-62 melanoma was > 100 µM in each case.
Take `N#CCCN(C(=O)Nc1ccccc1)[C@H]1CCCC[C@@H]1N(C(=O)Nc1ccccc1)c1ccccc1`: the TGI in the test with CCRF-CEM leukemia, in the test with DU-145 prostate, in the test on HCC-2998 colon, in the test with MALME-3M melanoma, in the test on MDA-N and in the test on NCI-H23 lung was > 100 µM throughout. Also, the TGI in the test on OVCAR-5 ovarian, with OVCAR-8 ovarian, in the test on SN12C renal and in the test with UACC-62 melanoma was > 100 µM in each case.
With `CSc1nc(Nc2cccc(C(F)(F)F)c2)c2c(N)nn(C)c2n1`, the TGI in the test with CCRF-CEM leukemia, with DU-145 prostate, with HCC-2998 colon, in the test with MALME-3M melanoma, in the test with MDA-N and with NCI-H23 lung was > 100 µM each time. Further, the TGI with OVCAR-5 ovarian, in the test with OVCAR-8 ovarian, in the test on SN12C renal and in the test on UACC-62 melanoma was > 100 µM throughout.
With `CN=C(N=Nc1c(O)[nH]c2ccccc12)SCC(=O)c1ccc(Br)cc1`, the TGI with CCRF-CEM leukemia was 30.8 µM; in the test on DU-145 prostate, 30.5 µM; with HCC-2998 colon it was 13.2 µM; with MALME-3M melanoma, > 47.1 µM; with MDA-N, > 100 µM; in the test with NCI-H23 lung, 51.1 µM. The TGI with OVCAR-5 ovarian is > 88.8 µM; in the test with OVCAR-8 ovarian, > 40.7 µM; with SN12C renal, > 48.7 µM; in the test with UACC-62 melanoma it was > 100 µM.
As to `O=C1CCCC1CN1CCCC1` (stereo not drawn), the TGI in the test on CCRF-CEM leukemia was 1.16 µM; with DU-145 prostate, > 66.4 µM; in the test with HCC-2998 colon, > 60.4 µM; in the test with MALME-3M melanoma it was 3.72 µM; with MDA-N, 26.8 µM; in the test on NCI-H23 lung, 31.3 µM. Besides, the TGI with OVCAR-5 ovarian worked out at 32.4 µM; with OVCAR-8 ovarian it was 35.4 µM; in the test on SN12C renal, 32.6 µM; with UACC-62 melanoma, 32.6 µM.
With `CC(CO)(CO)N1C(=O)C2C3C=CC(C3)C2C1=O` (stereo not drawn), the TGI with CCRF-CEM leukemia, in the test with DU-145 prostate, with HCC-2998 colon, with MALME-3M melanoma, in the test with MDA-N and with NCI-H23 lung was > 100 µM each time. For the same molecule, the TGI with OVCAR-5 ovarian, with OVCAR-8 ovarian, with SN12C renal and in the test on UACC-62 melanoma was > 100 µM in each case.
With `Cc1nc2c(nc1C)-c1[nH]c3c(c1C(=O)C2=O)CCCC3=O`, the TGI worked out at 5.16 µM in the test with CCRF-CEM leukemia; 23.5 µM in the test on DU-145 prostate; 7.71 µM in the test with HCC-2998 colon; 2.82 µM with MALME-3M melanoma; 1.9 µM in the test with MDA-N; 5.63 µM with NCI-H23 lung. Also, the TGI with OVCAR-5 ovarian was found to be 4.7 µM; with OVCAR-8 ovarian it was 2.88 µM; with SN12C renal, 3.28 µM; with UACC-62 melanoma, 3.25 µM.
Consider `CSc1ncnc2c1ncn2CCC(=O)OC(C)(C)C`, for which the TGI in the test with CCRF-CEM leukemia, in the test with DU-145 prostate, with HCC-2998 colon, in the test with MALME-3M melanoma, with MDA-N and in the test on NCI-H23 lung was > 100 µM in each case. Further, the TGI with OVCAR-5 ovarian, in the test with OVCAR-8 ovarian and in the test with SN12C renal was > 100 µM each time.
`CCOC(=O)CC[C@H](NC(=O)[C@H](N)Cc1ccc(N(CCCl)CCCl)cc1)C(=O)OCC`: the TGI with CCRF-CEM leukemia was > 49.6 µM; in the test on DU-145 prostate, 43.9 µM; in the test with HCC-2998 colon, > 48.6 µM; in the test with MALME-3M melanoma it was 9.92 µM; in the test with MDA-N, > 50.8 µM; with NCI-H23 lung, 12.9 µM. The TGI in the test with OVCAR-5 ovarian was 65 µM; with OVCAR-8 ovarian, > 52.8 µM; in the test on SN12C renal, > 62.4 µM; in the test on UACC-62 melanoma, 15.2 µM.
With `CC(=O)c1[nH]c(NCc2ccccc2)c(C(=S)Nc2ccccc2)c1N`, the TGI with CCRF-CEM leukemia was > 100 µM; with DU-145 prostate, > 100 µM; in the test with HCC-2998 colon, 40.6 µM; in the test on MALME-3M melanoma, 38.6 µM; in the test with MDA-N, 39.1 µM; with NCI-H23 lung, > 100 µM. Besides, the TGI is 55.1 µM with OVCAR-5 ovarian, 39.2 µM in the test with OVCAR-8 ovarian, 50.8 µM in the test on SN12C renal and 32.5 µM in the test on UACC-62 melanoma.
On to `COc1ccc(/C=C2\N=C(SC)N(CN3CCOCC3)C2=O)cc1`, for which the TGI in the test with CCRF-CEM leukemia, with DU-145 prostate, in the test with MALME-3M melanoma, in the test with MDA-N, in the test on NCI-H23 lung and in the test with OVCAR-5 ovarian was > 100 µM each time. The TGI in the test with OVCAR-8 ovarian, with SN12C renal and in the test on UACC-62 melanoma was > 100 µM in each case.
Consider `CC12CC(c3ccccc3O1)C(C(=O)Nc1ccc(Cl)cc1Cl)C(=O)N2` (stereo not drawn), for which the TGI is 30.1 µM with CCRF-CEM leukemia; > 100 µM with DU-145 prostate; > 100 µM in the test with HCC-2998 colon; 89.8 µM with MALME-3M melanoma; > 100 µM in the test with MDA-N; > 100 µM in the test on NCI-H23 lung. Also, the TGI in the test with OVCAR-5 ovarian was > 100 µM; in the test with OVCAR-8 ovarian, 30.6 µM; in the test with UACC-62 melanoma, > 100 µM.
`O=C(O)C(NCc1ccccc1)C(NCc1ccccc1)C(=O)O` (stereo not drawn): the TGI in the test on CCRF-CEM leukemia, in the test on DU-145 prostate, in the test with HCC-2998 colon, with MALME-3M melanoma, with MDA-N and with NCI-H23 lung was > 100 µM throughout. The TGI with OVCAR-8 ovarian, with SN12C renal and with UACC-62 melanoma was > 100 µM in each case.
For `O=c1c(/C=C/c2c(O)ccc3ccccc23)nnc2sc(-c3cccc(Br)c3)nn12`, the TGI in the test on CCRF-CEM leukemia was 18.6 µM; in the test on DU-145 prostate it was 45.3 µM; in the test with HCC-2998 colon, 89 µM; in the test on MALME-3M melanoma it was > 100 µM; in the test on MDA-N, > 100 µM; in the test with NCI-H23 lung, 40.3 µM. Moreover, the TGI in the test with OVCAR-5 ovarian was > 100 µM; in the test on OVCAR-8 ovarian it was 23.6 µM; in the test on UACC-62 melanoma it was 68.6 µM.
Take `CC(=O)Oc1ccc2c(C)cc(=O)oc2c1OC(C)=O`: the TGI is 83.7 µM in the test on CCRF-CEM leukemia; > 100 µM with DU-145 prostate; 99.6 µM in the test with MALME-3M melanoma; > 100 µM in the test on MDA-N; > 100 µM with NCI-H23 lung; > 100 µM in the test with OVCAR-5 ovarian. Besides, the TGI with OVCAR-8 ovarian, with SN12C renal and in the test on UACC-62 melanoma was > 100 µM in each case.
Regarding `COc1ccc(P2(=S)OC(C)(C)C(C)(C)O2)cc1`, the TGI in the test with CCRF-CEM leukemia, in the test on DU-145 prostate, with MALME-3M melanoma, with MDA-N, in the test on NCI-H23 lung and in the test with OVCAR-5 ovarian was > 100 µM in each case. In addition, the TGI in the test with OVCAR-8 ovarian, with SN12C renal and in the test on UACC-62 melanoma was > 100 µM each time.
On to `CN(CC(=O)O)c1ncc2c(n1)CCCC2`, for which the TGI in the test with CCRF-CEM leukemia, in the test with DU-145 prostate, in the test with MALME-3M melanoma, in the test with MDA-N, in the test on NCI-H23 lung and in the test with OVCAR-5 ovarian was > 100 µM throughout. For the same molecule, the TGI in the test on OVCAR-8 ovarian, in the test on SN12C renal and in the test on UACC-62 melanoma was > 100 µM each time.
Turning to `Cc1cc(S(=O)(=O)Nc2n[nH]c(N)n2)c(SCC(=O)O)cc1Cl`, the TGI in the test on CCRF-CEM leukemia, with DU-145 prostate, in the test with HCC-2998 colon, in the test with MALME-3M melanoma, in the test on MDA-N and in the test with NCI-H23 lung was > 10 µM throughout. The TGI with OVCAR-5 ovarian, in the test on OVCAR-8 ovarian and in the test with SN12C renal was > 10 µM each time.
In the case of `O=C(Nc1nc(C23CC4CC(CC(C4)C2)C3)cs1)c1cc2ccc(O)cc2oc1=O`, the TGI in the test with CCRF-CEM leukemia was 68.1 µM; in the test with DU-145 prostate, > 100 µM; with HCC-2998 colon, 43.3 µM; in the test on MALME-3M melanoma it was 34.5 µM; with MDA-N it was 41.3 µM; with NCI-H23 lung, 38.4 µM. Also, the TGI with OVCAR-5 ovarian amounted to 48.5 µM; in the test on OVCAR-8 ovarian, 90.9 µM; with SN12C renal, 30.4 µM.
Turning to `NNC(=O)c1n[nH]nc1C(=O)NN`, the TGI in the test on CCRF-CEM leukemia was > 100 µM; in the test with DU-145 prostate it was > 100 µM; with HCC-2998 colon, > 100 µM; with MALME-3M melanoma it was 33.1 µM; with MDA-N, > 100 µM; in the test on NCI-H23 lung, > 100 µM. Also, the TGI in the test with OVCAR-5 ovarian, in the test on OVCAR-8 ovarian and in the test with SN12C renal was > 100 µM each time.
Turning to `Cc1nn(-c2ccccc2)c2c1C(c1ccc(Cl)cc1)NC(=S)N2` (stereo not drawn), the TGI with CCRF-CEM leukemia is 72.8 µM; in the test with DU-145 prostate it was > 100 µM; in the test with MALME-3M melanoma, 93.9 µM; with MDA-N, 93.6 µM; in the test with NCI-H23 lung, 44.5 µM; with OVCAR-5 ovarian it was 89.4 µM. Further, the TGI with OVCAR-8 ovarian is 43.3 µM; with SN12C renal it was 47.5 µM; in the test on UACC-62 melanoma, 60.5 µM.

The values are drawn from PubChem BioAssay (NCI).
